The source of these data is publication PMC10350924, “Design, Synthesis, and Pharmacological Characterization of a Potent Soluble Epoxide Hydrolase Inhibitor for the Treatment of Acute Pancreatitis” (Journal of Medicinal Chemistry, 2023).

Test [1] concerns cerulein-induced acute pancreatitis. The test can be described thus: Cerulein-induced acute pancreatitis in mice. It is filed as in vivo. The procedure:
Male CD-1 mice (33–39 g, 8 weeks, Charles River Laboratories; Calco, Italy) were fed with standard rodent chow and water and acclimated for 4 days at a 12 h light and 12 h dark schedule in a constant air-conditioned environment (21 ± 2 °C). The mice were randomly assigned to groups, and experiments were carried out during the light phase. Experimental procedures were conducted in conformity with Italian (D.L. 26/2014) and European (directive 2010/63/EU) regulations on the protection of animals used for scientific purposes and approved by the Italian Ministry. Acute pancreatitis (AP) was induced in mice by intraperitoneal (i.p.) injections of cerulein (50 μg/kg) hourly (5 times).[56] The groups were: (a) Sham group which received saline i.p. hourly (×5); […] The mice were killed 6 h after the first cerulein injection. Blood samples were obtained by direct intracardiac puncture. Pancreases and lungs were removed immediately, frozen, and stored at −80 °C until assayed. Portions of these organs were also fixed in formaldehyde for histological and immunohistochemical examination. Pancreas and lung sections (6 μm) were stained for hematoxylin & eosin (H&E). Evaluation of pancreas edema and inflammation signs were performed with a three-point scoring system. […] Analysis was performed in a blinded manner. Evaluation of lung edema and inflammatory infiltration was performed with three-point scoring system: 0, absent; 1, mild; 2, moderate; 3, severe. […] Tissue sections were then incubated with normal goat serum (Vector Laboratories, Newark, California) for 20 min to reduce nonspecific antibody interactions. Sections were incubated with primary antibody diluted in 0.01 M PBS, 2.5% normal serum (anti-Neutrophils rat monoclonal antibody, dilution 1:100, Abcam) for 30 min. After rinsing with PBS 0.01 M for 5 min, slides were incubated with biotinylated goat anti-rat IgG (Vector Laboratories, Newark, California), diluted 1:200, for 30 min. After rinsing with PBS 0.01 M for 5 min, slides were incubated with VECTASTAIN ABC Reagent (Vector Laboratories, Newark, California) for 30 min. Color development was performed using […] 3,3′-diaminobenzidine solution (Sigma-Aldrich, Milan, Italy), and sections were analyzed using Leica Microsystem with a magnification of 20x. Semiquantitative determination of protein expression was obtained with ImageJ/Fiji software. Liver injury was assessed by measuring the rise in plasma levels of alanine aminotransferase (ALT, a specific marker for hepatic parenchymal injury) and aspartate aminotransferase (AST, a nonspecific marker for hepatic injury) 6 h after cerulein injection by a clinical laboratory. Results are expressed in international units per milliliter.

In test [2] the test system is PGE2 production in LPS-stimulated J774 murine macrophages. As to the kind of experiment: PGE2 production in LPS-stimulated J774 macrophages. It is filed as cell-based. The following applies: Mus musculus; J774, 2 h pre-treatment 0.1–10 μM, LPS 10 μg/mL 24 h; read-out: IC50 for reduction of PGE2 levels. The procedure: Murine monocyte/macrophage J774 cell line was obtained from the American Type Culture Collection (ATTC TIB 67). The cell line was grown in adhesion in Dulbecco’s modified Eagle’s medium (DMEM) supplemented with glutamine (2 mM, Aurogene Rome, Italy), Hepes (25 mM, Aurogene Rome, Italy), penicillin (100 U/mL, Aurogene Rome, Italy), streptomycin (100 μg/mL, Aurogene Rome, Italy), fetal bovine serum (FBS, 10%, Aurogene Rome, Italy), and sodium pyruvate (1.2%, Aurogene Rome, Italy) (DMEM completed). The cells were plated at a density of 1 × 10^6 cells in 75 cm^2 culture flasks and maintained at 37 °C under 5% CO2 in a humidified incubator until 90% confluence. The culture medium was changed every 2 days. Before a confluent monolayer appeared, subculturing cell process was carried out. Cells (0.5 × 10^6 cells/mL) were pretreated for 2 h in the absence or presence of 28 (0.1–10 μM) and then stimulated, for 24 h, with lipopolysaccharide (LPS) from E. coli, Serotype 0111:B4, (10 μg/mL; 100 μL in DMEM completed with FBS, Sigma-Aldrich, Milan, Italy).[42] The supernatants were collected for the measurement of PGE2 levels by ELISA assay (Cayman Chemical, Vinci-Biochem, Vinci, Italy).

[3] abbreviates: 10 mg/kg i.p. 0.5 and 2.5 h after first cerulein injection, 6 h.
Setting [4] is: 10 mg/kg i.p., 6 h after first cerulein injection.

As a reminder, the IC50 is the concentration at which inhibition is half-maximal.

With `CC(C)c1ccc(Cn2ccc3cc(NC(=O)NCC45C[C@H]6C[C@@H](C4)C[C@@H](C5)C6)ccc32)cc1` [Compound 28, 1-(((3R,5R,7R)-Adamantan-1-yl)methyl)-3-(1-(4-isopropylbenzyl)-1H-indol-5-yl)urea], in test [1] (setting [3]), the “lung inflammation and neutrophilia” value is listed as “reduced”; the “pancreatic injury (edema, cell infiltration, neutrophil numbers)” value is reported as “protective effect”. Also, in test [1] (setting [4]), the “serum ALT levels” value is reported as “decreased” and the “serum AST levels” value was “decreased”. For the same molecule, in test [2], the IC50 was more than 10 µM.
